Results taken from US20250129103A1, “METHODS FOR TREATMENT OF CANCER” (Frontier Medicines Corporation, priority 2022, published 2025).
Values after ≈ are worked out from the molar mass of the structure shown.

Columns and labels:
[1] = biological target: KRAS G12C (GMPPNP-loaded) and cRAF (Ras-binding domain) interaction (Homo sapiens (Human), UniProt P01116, C118S/C51S/C80L/G12C); assay: Inhibition of KRAS G12C and cRAF binding (AlphaScreen); conditions: KRAS G12C loaded with GMPPNP, cRaf RBD, 2 hours preincubation; read-out: Raf-1 RBD K-Ras IC50
Outline: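 GMPPNP-loaded KRAS G12C in 25 mM Hepes pH 7.4, 150 mM NaCl, 5 mM MgCl2, 0.01% Triton X-100, 10 μM GMPPNP, 2% DMSO, preincubated with compound 2 h at room temperature. cRAF RBD plus AlphaScreen beads then added for 60-90 min; signal read at 570 nm.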

[2] = Determination of kinetic solubility (pH 7.4); type: physicochemical; conditions: phosphate buffer, pH 7.4, aqueous buffer, kinetic from dmso stock, 50 mM phosphate buffer pH 7.4, read-out: Ksol, pH 7.4
Outline: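 Sample mixed with 50 mM phosphate buffer, pH 7.4, vortexed, then shaken 2 h at room temperature and centrifuged. Filtrate analysed by HPLC-UV and LC-MS/MS, with solubility read from peak areas against a standard calibration curve.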

[3] = Determination of logD (1-octanol / phosphate buffer pH 7.4); type: physicochemical; conditions: 1-octanol/phosphate buffer, pH 7.4, pH 7.4, 1-octanol/phosphate buffer; read-out: Log D, pH 7.4
Outline: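 Shake-flask partition between 1-octanol and 100 mM phosphate buffer pH 7.4, each phase presaturated with the other overnight. Tubes shaken 1 h at 800 rpm, room temperature, then centrifuged. Both phases quantified by LCMS and logD calculated from the ratio.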

[4] = biological target: KRAS G12C (GMPPNP-loaded) and PI3Ka (Ras-binding domain) interaction (Homo sapiens (Human), UniProt P01116, C118S/C51S/C80L/G12C); assay: Inhibition of KRAS G12C and PI3Ka binding (AlphaScreen); conditions: KRAS G12C loaded with GMPPNP, PI3Ka RBD, 2 hours preincubation; read-out: PI3K RBD K-Ras IC50
Outline: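 Biotin-AviTag Cys-light KRAS G12C (aa 1-169, C51S/C80L/C118S), GMPPNP-loaded, 1.5 nM, preincubated 2 h with compound, then His-tagged PI3Ka RBD (aa 157-300, 100 nM) plus AlphaScreen beads added for 60-90 min, RT. Buffer Hepes pH 7.4, 10 μM GMPPNP, 2% DMSO; 10-point 1:3 from 50 μM; 4-parameter IC50.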

Chain of KRAS G12C (GMPPNP-loaded) and cRAF (Ras-binding domain) interaction (P01116 other isoform, or with tags, fused parts or gaps G12C/C51S/C80L/C118S): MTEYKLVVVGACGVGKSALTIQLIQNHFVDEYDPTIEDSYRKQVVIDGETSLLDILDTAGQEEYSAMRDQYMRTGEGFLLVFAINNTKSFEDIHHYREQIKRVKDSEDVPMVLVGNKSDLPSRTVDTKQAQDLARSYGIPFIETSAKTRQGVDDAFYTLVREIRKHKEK
Chain of KRAS G12C (GMPPNP-loaded) and PI3Ka (Ras-binding domain) interaction (P01116 other isoform, or with tags, fused parts or gaps G12C/C51S/C80L/C118S): as above

SMILES | IC50 [1] [nM] | solubility kinetic at 2 h [2] [µg/mL] | logD [3] | IC50 [4] [nM]
N#CC[C@H]1CN(c2nc(OC[C@@]34CCCN3C[C@H](F)C4)nc3c(F)c(-c4cccc5ccc(F)c(Cl)c45)ncc23)CCN1C(=O)/C=C/CN1CC2CCC(C1)O2 [Example 78, 2-((2S)-1-((E)-4-(8-oxa-3-azabicyclo[3.2.1]octan-3-yl)but-2-enoyl)-4-(7-(8-chloro-7-fluoronaphthalen-1-yl)-8-fluoro-2-(((2R,7aS)-2-fluorotetrahydro-1H-pyrrolizin-7a(5H)-yl)methoxy)pyrido[4,3-d]pyrimidin-4-yl)piperazin-2-yl)acetonitrile] | < 10 | 85 (≈ 108 µM) | 3.64 | < 10
N#CC[C@H]1CN(c2nc(OC[C@@]34CCCN3C[C@H](F)C4)nc3c(F)c(-c4cccc5ccc(F)c(Cl)c45)ncc23)CCN1C(=O)/C=C/CN1[C@@H]2CC[C@H]1COC2 [Example 79, 2-((S)-1-((E)-4-((1R,5S)-3-oxa-8-azabicyclo[3.2.1]octan-8-yl)but-2-enoyl)-4-(7-(8-chloro-7-fluoronaphthalen-1-yl)-8-fluoro-2-(((2R,7aS)-2-fluorotetrahydro-1H-pyrrolizin-7a(5H)-yl)methoxy)pyrido[4,3-d]pyrimidin-4-yl)piperazin-2-yl)acetonitrile] | < 10 | 155 (≈ 197 µM) | 3.53 | < 10
CO[C@@H]1CCN(C/C=C/C(=O)N2CCN(c3nc(OC[C@@]45CCCN4C[C@H](F)C5)nc4c(F)c(-c5cccc6ccc(F)c(Cl)c56)ncc34)C[C@@H]2CC#N)C1 [Example 85, 2-((S)-4-(7-(8-chloro-7-fluoronaphthalen-1-yl)-8-fluoro-2-(((2R,7aS)-2-fluorotetrahydro-1H-pyrrolizin-7a(5H)-yl)methoxy)pyrido[4,3-d]pyrimidin-4-yl)-1-((E)-4-((R)-3-methoxypyrrolidin-1-yl)but-2-enoyl)piperazin-2-yl)acetonitrile] | < 10 | 85.5 (≈ 110 µM) | 2.97 | < 10
N#CC[C@H]1CN(c2nc(OC[C@@]34CCCN3C[C@H](F)C4)nc3c(F)c(-c4cccc5cccc(Cl)c45)ncc23)CCN1C(=O)/C=C/CN1CC2CC(C1)O2 [Example 86, 2-((2S)-1-((E)-4-(6-oxa-3-azabicyclo[3.1.1]heptan-3-yl)but-2-enoyl)-4-(7-(8-chloronaphthalen-1-yl)-8-fluoro-2-(((2R,7aS)-2-fluorohexahydro-1H-pyrrolizin-7a-yl)methoxy)pyrido[4,3-d]pyrimidin-4-yl)piperazin-2-yl)acetonitrile] | < 10 | 96.6 (≈ 128 µM) | 2.9 | < 10
N#CC[C@H]1CN(c2nc(OC[C@@]34CCCN3C[C@H](F)C4)nc3c(F)c(-c4cccc5cccc(Cl)c45)ncc23)CCN1C(=O)/C=C/CN1[C@@H]2CC[C@H]1COC2 [Example 87, 2-((S)-1-((E)-4-((1R,5S)-3-oxa-8-azabicyclo[3.2.1]octan-8-yl)but-2-enoyl)-4-(7-(8-chloronaphthalen-1-yl)-8-fluoro-2-(((2R,7aS)-2-fluorohexahydro-1H-pyrrolizin-7a-yl)methoxy)pyrido[4,3-d]pyrimidin-4-yl)piperazin-2-yl)acetonitrile] | < 10 | 69.8 (≈ 90.7 µM) | 3.27 | < 10

Further lines, results first:

IC50 [1] [nM] | solubility kinetic at 2 h [2] [µg/mL] | logD [3] | IC50 [4] [nM] | SMILES
< 10 | 146 (≈ 189 µM) | 3.2 | < 10 | CO[C@H]1CCN(C/C=C/C(=O)N2CCN(c3nc(OC[C@@]45CCCN4C[C@H](F)C5)nc4c(F)c(-c5cccc6ccc(F)c(Cl)c56)ncc34)C[C@@H]2CC#N)C1 [Example 80, 2-((S)-4-(7-(8-chloro-7-fluoronaphthalen-1-yl)-8-fluoro-2-(((2R,7aS)-2-fluorotetrahydro-1H-pyrrolizin-7a(5H)-yl)methoxy)pyrido[4,3-d]pyrimidin-4-yl)-1-((E)-4-((S)-3-methoxypyrrolidin-1-yl)but-2-enoyl)piperazin-2-yl)acetonitrile]
< 10 | 74.4 (≈ 96.7 µM) | 3.7 | < 10 | N#CC[C@H]1CN(c2nc(OC[C@@]34CCCN3C[C@H](F)C4)nc3c(F)c(-c4cccc5cccc(Cl)c45)ncc23)CCN1C(=O)/C=C/CN1CC2CCC(C1)O2 [Example 81, 2-((2S)-1-((E)-4-(8-oxa-3-azabicyclo[3.2.1]octan-3-yl)but-2-enoyl)-4-(7-(8-chloronaphthalen-1-yl)-8-fluoro-2-(((2R,7aS)-2-fluorohexahydro-1H-pyrrolizin-7a-yl)methoxy)pyrido[4,3-d]pyrimidin-4-yl)piperazin-2-yl)acetonitrile]
< 10 | 3.46 (≈ 4.35 µM) | 4.2 | < 10 | N#CC[C@H]1CN(c2nc(OC[C@@]34CCCN3C[C@H](F)C4)nc3c(F)c(-c4cccc5ccc(F)c(Cl)c45)ncc23)CCN1C(=O)/C=C/CN1CCC(F)(F)CC1 [Example 82, 2-((S)-4-(7-(8-chloro-7-fluoronaphthalen-1-yl)-8-fluoro-2-(((2R,7aS)-2-fluorotetrahydro-1H-pyrrolizin-7a(5H)-yl)methoxy)pyrido[4,3-d]pyrimidin-4-yl)-1-((E)-4-(4,4-difluoropiperidin-1-yl)but-2-enoyl)piperazin-2-yl)acetonitrile]
< 10 | 93.4 (≈ 125 µM) | 2.98 | < 10 | N#CC[C@H]1CN(c2nc(OC[C@@]34CCCN3C[C@H](F)C4)nc3c(F)c(-c4cccc5ccc(F)c(F)c45)ncc23)CCN1C(=O)/C=C/CN1CCOCC1 [Example 83, 2-((S)-4-(7-(7,8-difluoronaphthalen-1-yl)-8-fluoro-2-(((2R,7aS)-2-fluorotetrahydro-1H-pyrrolizin-7a(5H)-yl)methoxy)pyrido[4,3-d]pyrimidin-4-yl)-1-((E)-4-morpholinobut-2-enoyl)piperazin-2-yl)acetonitrile]
< 10 | 45.9 (≈ 59.7 µM) | 4.55 | < 10 | CCc1nccc(/C=C/C(=O)N2CCN(c3nc(OC[C@@]45CCCN4C[C@H](F)C5)nc4c(F)c(-c5cccc6ccc(F)c(Cl)c56)ncc34)C[C@@H]2CC#N)n1 [Example 88, 2-((S)-4-(7-(8-chloro-7-fluoronaphthalen-1-yl)-8-fluoro-2-(((2R,7aS)-2-fluorotetrahydro-1H-pyrrolizin-7a(5H)-yl)methoxy)pyrido[4,3-d]pyrimidin-4-yl)-1-((E)-3-(2-ethylpyrimidin-4-yl)acryloyl)piperazin-2-yl)acetonitrile]
< 10 | 0.03 (≈ 0.0391 µM) | 3.99 | < 10 | Cc1cc(/C=C/C(=O)N2CCN(c3nc(OC[C@@]45CCCN4C[C@H](F)C5)nc4c(F)c(-c5cccc6ccc(F)c(Cl)c56)ncc34)C[C@@H]2CC#N)nc(C)n1 [Example 89, 2-((S)-4-(7-(8-chloro-7-fluoronaphthalen-1-yl)-8-fluoro-2-(((2R,7aS)-2-fluorotetrahydro-1H-pyrrolizin-7a(5H)-yl)methoxy)pyrido[4,3-d]pyrimidin-4-yl)-1-((E)-3-(2,6-dimethylpyrimidin-4-yl)acryloyl)piperazin-2-yl)acetonitrile]
10 to 100 | 5.26 (≈ 7 µM) | 3.77 | < 10 | Cc1cc(/C=C/C(=O)N2CCN(c3nc(OC[C@@]45CCCN4C[C@H](F)C5)nc4c(F)c(-c5cccc6ccc(F)c(F)c56)ncc34)C[C@@H]2CC#N)nc(C)n1 [Example 90, 2-((S)-4-(7-(7,8-difluoronaphthalen-1-yl)-8-fluoro-2-(((2R,7aS)-2-fluorotetrahydro-1H-pyrrolizin-7a(5H)-yl)methoxy)pyrido[4,3-d]pyrimidin-4-yl)-1-((E)-3-(2,6-dimethylpyrimidin-4-yl)acryloyl)piperazin-2-yl)acetonitrile]
